Measured values as given in ChEMBL document CHEMBL1201862, “PubChem BioAssay data set” (2004).
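Each compound was tested at five concentrations against cells in 96-well plates for 48 hours. Here, GI50 denotes the concentration required for 50% inhibition of growth.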 Calls of active or inactive are those of the source. Cut-off read from the data, not from the text of the source: active = GI50 up to about 1.1 µM and inactive = higher.

Tests used:
Experiment in all cases: growth of human tumour cells (NCI), 48 h
A549 = test system: A549
EKVX = test system: EKVX
HCC 2998 = test system: HCC 2998
HCT-116 = test system: HCT-116
HL-60 = test system: HL-60
HT-29 = test system: HT-29
KM12 = test system: KM12
M14 = test system: M14
MCF7 = test system: MCF7
MDA-MB-435 = test system: MDA-MB-435
MOLT-4 = test system: MOLT-4
NCI-H460 = test system: NCI-H460
NCI-H522 = test system: NCI-H522
RPMI-8226 = test system: RPMI-8226
RXF 393 = test system: RXF 393
SF-539 = test system: SF-539
SW-620 = test system: SW-620
U-251 = test system: U-251
UO-31 = test system: UO-31
SK-OV-3 = test system: SK-OV-3

SMILES	GI50 (A549)	GI50 (EKVX)	GI50 (HCC 2998)	GI50 (HCT-116)	GI50 (HL-60)	GI50 (HT-29)	GI50 (KM12)	GI50 (M14)	GI50 (MCF7)	GI50 (MDA-MB-435)	GI50 (MOLT-4)	GI50 (NCI-H460)	GI50 (NCI-H522)	GI50 (RPMI-8226)	GI50 (RXF 393)	GI50 (SF-539)	GI50 (SW-620)	GI50 (U-251)	GI50 (UO-31)	GI50 (SK-OV-3)
C/C(=C\c1ccc2c(c1)OCO2)[N+](=O)[O-]	4.2 µM (inactive)	4.08 µM (inactive)	3.54 µM (inactive)	7.16 µM (inactive)	1.46 µM (inactive)	2.98 µM (inactive)	1.54 µM (inactive)	3.65 µM (inactive)	0.205 µM (active)	2.21 µM (inactive)	0.195 µM (active)	3.26 µM (inactive)	1.64 µM (inactive)	0.225 µM (active)	1.46 µM (inactive)	2.91 µM (inactive)	2.59 µM (inactive)	1.79 µM (inactive)	1.19 µM (inactive)	
COc1cc2c(c3oc4c(O)cccc4c(=O)c13)CC(C(C)(O)CO)O2 (configuration not stated)	> 100 µM (inactive)	> 100 µM (inactive)	> 100 µM (inactive)	40.6 µM (inactive)	83.2 µM (inactive)	43.8 µM (inactive)		> 100 µM (inactive)	19.5 µM (inactive)	> 100 µM (inactive)	15.7 µM (inactive)	96.8 µM (inactive)	35.1 µM (inactive)	> 100 µM (inactive)	7.74 µM (inactive)	60.3 µM (inactive)	47.6 µM (inactive)	97.9 µM (inactive)	> 100 µM (inactive)	
CCOC(=O)CCC(NC(=O)c1ccc(Nc2cnc3cc(C(F)(F)F)ccc3n2)cc1)C(=O)OCC (configuration not stated)	> 89.3 µM (inactive)	> 84.7 µM (inactive)	> 30.6 µM (inactive)	17.8 µM (inactive)	> 100 µM (inactive)	> 100 µM (inactive)	61.9 µM (inactive)	35.9 µM (inactive)	> 31.6 µM (inactive)	> 100 µM (inactive)	> 100 µM (inactive)	12.6 µM (inactive)	30.3 µM (inactive)	> 100 µM (inactive)	3.55 µM (inactive)	> 100 µM (inactive)	> 100 µM (inactive)	9.48 µM (inactive)	> 100 µM (inactive)	
CC(C)(C)C(=O)OCOP(=O)(OCOC(=O)C(C)(C)C)OCC1OC(n2ccc(=O)[nH]c2=O)C(N=[N+]=[N-])C1O (configuration not stated)	2.99 µM (inactive)	7.59 µM (inactive)	2.75 µM (inactive)	3.22 µM (inactive)	2.14 µM (inactive)	3.44 µM (inactive)	3.11 µM (inactive)	3 µM (inactive)	3.81 µM (inactive)	3.71 µM (inactive)	4.01 µM (inactive)	3.08 µM (inactive)	4.92 µM (inactive)	1.62 µM (inactive)	2.3 µM (inactive)	2.43 µM (inactive)	5.79 µM (inactive)	2.59 µM (inactive)	1.62 µM (inactive)	
COC1(C)/C=N/CC(C)(C)NC(=O)C(C)(OC)/C=N/CC(C)(C)NC1=O (configuration not stated)	> 10 µM (inactive)	> 10 µM (inactive)	> 10 µM (inactive)	> 10 µM (inactive)	> 10 µM (inactive)	> 10 µM (inactive)	> 10 µM (inactive)	> 10 µM (inactive)	> 10 µM (inactive)	> 10 µM (inactive)	> 10 µM (inactive)		3.53 µM (inactive)	> 10 µM (inactive)	> 10 µM (inactive)	> 10 µM (inactive)	> 10 µM (inactive)	> 10 µM (inactive)		> 10 µM (inactive)
C/C(=N\NC(=O)/C(C#N)=C\c1ccc(N(CCC#N)CCC#N)cc1)c1ccccc1	> 10 µM (inactive)	> 10 µM (inactive)	> 10 µM (inactive)	> 10 µM (inactive)	> 10 µM (inactive)	> 10 µM (inactive)	> 10 µM (inactive)	> 10 µM (inactive)	> 10 µM (inactive)	> 10 µM (inactive)	> 10 µM (inactive)	> 10 µM (inactive)	> 10 µM (inactive)	> 10 µM (inactive)	> 10 µM (inactive)	> 10 µM (inactive)	> 10 µM (inactive)		> 10 µM (inactive)	> 10 µM (inactive)
CC1=NN(c2cccc(Cl)c2)C2(SCC(=O)N2c2nc3ccccc3s2)/C1=C\c1ccccc1O (configuration not stated)		30.5 µM (inactive)	21.6 µM (inactive)	14.9 µM (inactive)	14.2 µM (inactive)	23.4 µM (inactive)	19.7 µM (inactive)	21.7 µM (inactive)	20 µM (inactive)	21.3 µM (inactive)	11.9 µM (inactive)	31.8 µM (inactive)	19.8 µM (inactive)	11.9 µM (inactive)	17 µM (inactive)	33.5 µM (inactive)	16.7 µM (inactive)	19.2 µM (inactive)	15.7 µM (inactive)	18.4 µM (inactive)
CCCCCCCCCC(O)CC(=O)c1c(O)cccc1O (configuration not stated)	23.6 µM (inactive)	21.9 µM (inactive)	12.4 µM (inactive)	20.1 µM (inactive)	22.2 µM (inactive)	19.5 µM (inactive)	19.3 µM (inactive)	20.1 µM (inactive)	26.8 µM (inactive)	25.9 µM (inactive)	19.5 µM (inactive)		19 µM (inactive)	20.6 µM (inactive)	16.9 µM (inactive)	20.3 µM (inactive)	39.5 µM (inactive)	36.7 µM (inactive)	19.3 µM (inactive)	20 µM (inactive)
CO/[N+]([O-])=C\C(=O)N/C=C/C(=O)O		> 100 µM (inactive)	> 100 µM (inactive)	> 100 µM (inactive)	> 100 µM (inactive)	> 10 µM (inactive)	> 100 µM (inactive)	> 100 µM (inactive)	> 100 µM (inactive)	> 100 µM (inactive)	> 100 µM (inactive)	> 100 µM (inactive)	> 100 µM (inactive)	79.6 µM (inactive)	> 100 µM (inactive)	> 100 µM (inactive)	> 100 µM (inactive)	> 100 µM (inactive)	> 100 µM (inactive)	> 100 µM (inactive)
COc1ccc(-n2cnc3c2=NC(C)(C)NC=3C(N)=O)c(OC)c1	> 100 µM (inactive)	> 100 µM (inactive)	> 100 µM (inactive)	> 100 µM (inactive)	> 100 µM (inactive)	> 100 µM (inactive)	> 100 µM (inactive)	> 100 µM (inactive)	> 100 µM (inactive)	> 100 µM (inactive)		> 100 µM (inactive)	> 100 µM (inactive)	> 100 µM (inactive)	> 100 µM (inactive)	> 100 µM (inactive)	> 100 µM (inactive)	> 100 µM (inactive)		> 100 µM (inactive)
Cn1c(-c2ccc(-c3cc(-c4cccs4)c(-c4cccs4)n3C)cc2)cc(-c2cccs2)c1-c1cccs1	> 100 µM (inactive)	> 100 µM (inactive)	> 100 µM (inactive)	> 100 µM (inactive)	> 100 µM (inactive)	> 100 µM (inactive)	> 100 µM (inactive)	> 100 µM (inactive)	> 100 µM (inactive)	> 100 µM (inactive)	> 100 µM (inactive)	> 100 µM (inactive)		> 100 µM (inactive)	> 100 µM (inactive)	> 100 µM (inactive)	> 100 µM (inactive)	> 100 µM (inactive)	> 100 µM (inactive)	> 100 µM (inactive)
CC1(C)N=c2[nH]cnc2=C(C(N)=O)N1	> 100 µM (inactive)	> 100 µM (inactive)	> 100 µM (inactive)	> 100 µM (inactive)	> 100 µM (inactive)	> 100 µM (inactive)	> 100 µM (inactive)	> 100 µM (inactive)	> 100 µM (inactive)	> 100 µM (inactive)		> 100 µM (inactive)	> 100 µM (inactive)	> 100 µM (inactive)	> 100 µM (inactive)	> 100 µM (inactive)	> 100 µM (inactive)	> 100 µM (inactive)		> 100 µM (inactive)
CC(C)(O)C1CC[C@]2(C)[C@H]3CC[C@@H]4[C@@]5(C)CCCC(C)(C)[C@@H]5CC[C@@]4(C)[C@]3(C)CC[C@@H]12 (some centres not stated)	> 100 µM (inactive)	> 100 µM (inactive)	> 100 µM (inactive)	> 100 µM (inactive)	> 100 µM (inactive)	> 100 µM (inactive)	> 100 µM (inactive)	> 100 µM (inactive)	> 100 µM (inactive)	> 100 µM (inactive)	> 100 µM (inactive)	> 100 µM (inactive)	> 100 µM (inactive)	> 100 µM (inactive)	> 100 µM (inactive)	> 100 µM (inactive)	> 100 µM (inactive)	> 100 µM (inactive)		> 100 µM (inactive)
Cc1ncc([N+](=O)[O-])n1CCN(C)C(=O)CCCn1ccnc1[N+](=O)[O-]	> 100 µM (inactive)	> 100 µM (inactive)		> 100 µM (inactive)	> 100 µM (inactive)	> 100 µM (inactive)	> 100 µM (inactive)	> 100 µM (inactive)	> 100 µM (inactive)	> 100 µM (inactive)	> 100 µM (inactive)	> 100 µM (inactive)	> 100 µM (inactive)	> 100 µM (inactive)	> 100 µM (inactive)	> 100 µM (inactive)	> 100 µM (inactive)	> 100 µM (inactive)	> 100 µM (inactive)	> 100 µM (inactive)
